# In ChEMBL document CHEMBL3882725, “Indazole derivatives as JNK inhibitors and compositions and methods related thereto” (2002):
# pIC50: −log10 of the molar value.
# Target: Mitogen-activated protein kinase 9 (Homo sapiens, UniProt P45984)
# Test: Inhibition of His6-tagged JNK2 (unknown origin) assessed as reduction in c-Jun phosphorylation using GST-c-Jun (1 to 79 residues) and [gamma32P]ATP incubated for 1 hr by scintillation counting assay
# Chain of Mitogen-activated protein kinase 9 (P45984 whole entry, the tested form may be a part): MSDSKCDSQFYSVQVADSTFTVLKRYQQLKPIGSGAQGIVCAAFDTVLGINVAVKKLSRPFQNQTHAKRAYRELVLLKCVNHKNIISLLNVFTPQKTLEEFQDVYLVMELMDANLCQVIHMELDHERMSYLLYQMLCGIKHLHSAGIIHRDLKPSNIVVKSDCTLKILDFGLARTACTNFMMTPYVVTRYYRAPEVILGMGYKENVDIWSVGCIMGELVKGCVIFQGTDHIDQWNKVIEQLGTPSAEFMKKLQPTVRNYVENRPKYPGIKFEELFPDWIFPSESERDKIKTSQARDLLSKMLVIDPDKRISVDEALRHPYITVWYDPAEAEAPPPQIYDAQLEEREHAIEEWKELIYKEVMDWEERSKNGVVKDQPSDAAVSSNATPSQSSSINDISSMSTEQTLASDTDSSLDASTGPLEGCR
row,Structure (SMILES),pIC50
1,CN(C)CC(=O)Nc1cccc(-c2n[nH]c3ccc(C(N)=O)cc23)c1,5.00 to 6.00
2,Nc1nnc(-c2ccc3[nH]nc(-c4ccc(F)cc4)c3c2)[nH]1,5.00 to 6.00
3,COC(=O)CCc1nnc(-c2ccc3[nH]nc(-c4ccc(F)cc4)c3c2)[nH]1,5.00 to 6.00
4,c1nc(-c2ccc3[nH]nc(-c4ccc5c(c4)OCO5)c3c2)n[nH]1,5.00 to 6.00
5,CN(C)CCNC(=O)c1ccc2[nH]nc(-c3cc4ccccc4o3)c2c1,5.00 to 6.00
6,CCOC(=O)CCCc1nnc(-c2ccc3[nH]nc(-c4ccc(F)cc4)c3c2)[nH]1,5.00 to 6.00
7,COc1ccc(-c2n[nH]c3ccc(-c4nnn[nH]4)cc23)cc1OC,5.00 to 6.30
8,CC(C)(C)CC(=O)Nc1cccc(-c2n[nH]c3ccc(-c4nc[nH]n4)cc23)c1,5.00 to 6.30
9,COc1ccc(-c2n[nH]c3ccc(C(N)=O)cc23)cc1OC,5.00 to 6.00
10,Nc1ccc(-c2n[nH]c3ccc(-c4nc[nH]n4)cc23)cc1,5.00 to 6.00
11,CN(C)CCOc1cccc(-c2n[nH]c3ccc(-c4nnn[nH]4)cc23)c1,5.00 to 6.00
12,COCC(=O)Nc1cccc(-c2n[nH]c3ccc(-c4nnc[nH]4)cc23)c1,5.00 to 6.30
13,c1cc(OCCN2CCOCC2)cc(-c2n[nH]c3ccc(-c4nnn[nH]4)cc23)c1,5.00 to 6.30
14,Oc1ccc(-c2nnc(-c3ccc4[nH]nc(-c5ccc(F)cc5)c4c3)[nH]2)cc1,5.00 to 6.00
15,NC(=O)c1ccc2[nH]nc(-c3cccc(N)c3)c2c1,5.00 to 6.00
16,NC(=O)c1ccc2[nH]nc(-c3cccc(NC(=O)c4ccco4)c3)c2c1,5.00 to 6.30
17,O=C(O)CCc1nnc(-c2ccc3[nH]nc(-c4ccc(F)cc4)c3c2)[nH]1,5.00 to 6.00
18,c1ccc2sc(-c3n[nH]c4ccc(-c5nn[nH]n5)cc34)cc2c1,5.00 to 6.30
19,O=C(O)Cc1nnc(-c2ccc3[nH]nc(-c4ccc(F)cc4)c3c2)[nH]1,5.00 to 6.00

row,Structure (SMILES),pIC50
1,NC(=O)c1ccc2[nH]nc(-c3cccc(NC(=O)CCN4CCCCC4)c3)c2c1,5.00 to 6.00
2,CC(=O)O[C@@H](C)C(=O)Nc1cccc(-c2n[nH]c3ccc(-c4nn[nH]n4)cc23)c1,5.00 to 6.30
3,CC(=O)c1ccc2[nH]nc(-c3ccc(F)cc3)c2c1,5.00 to 6.00
4,CC(O)C(=O)Nc1cccc(-c2n[nH]c3ccc(-c4nc[nH]n4)cc23)c1 (stereo unspecified),5.00 to 6.30
5,CC(O)c1nnc(-c2ccc3[nH]nc(-c4ccc(F)cc4)c3c2)[nH]1 (stereo unspecified),5.00 to 6.30
6,CC(=O)N1CCN(Cc2nnc(-c3ccc4[nH]nc(-c5ccc(F)cc5)c4c3)[nH]2)CC1,5.00 to 6.00
7,O=C(CCN1CCCCC1)Nc1cccc(-c2n[nH]c3ccc(-c4nc[nH]n4)cc23)c1,5.00 to 6.00
8,C[C@H](O)C(=O)Nc1cccc(-c2n[nH]c3ccc(-c4nn[nH]n4)cc23)c1,5.00 to 6.30
9,NC(=O)c1ccc2[nH]nc(-c3cccc(NC(=O)C4CCNCC4)c3)c2c1,5.00 to 6.00
10,C(#Cc1n[nH]c2ccc(-c3nnc[nH]3)cc12)c1ccccc1,5.00 to 6.00
11,COCC(=O)Nc1cccc(-c2n[nH]c3ccc(C(N)=O)cc23)c1,5.00 to 6.00
12,CN(C)CCCOc1ccc(-c2n[nH]c3ccc(-c4nnn[nH]4)cc23)cc1,5.00 to 6.30
13,CN(C)CCCNC(=O)c1ccc2[nH]nc(-c3cc4ccccc4o3)c2c1,5.00 to 6.00
14,CN(C)CCCOc1cccc(-c2n[nH]c3ccc(-c4nnn[nH]4)cc23)c1,5.00 to 6.30
15,CC(C)CNC(=O)c1ccc2[nH]nc(-c3cc4ccccc4o3)c2c1,5.00 to 6.00
16,c1ccc2oc(-c3n[nH]c4ccc(-c5nc[nH]n5)cc34)cc2c1,5.00 to 6.30
17,COCC(=O)Nc1cccc(-c2n[nH]c3ccc(-c4nn[nH]n4)cc23)c1,5.00 to 6.30
18,COCCC(=O)Nc1cccc(-c2n[nH]c3ccc(-c4nn[nH]n4)cc23)c1,5.00 to 6.30
19,Clc1ccc(/C=C/c2n[nH]c3ccc(-c4nc[nH]n4)cc23)cc1,5.00 to 6.00

row,Structure (SMILES),pIC50
1,CCCC(=O)Nc1cccc(-c2n[nH]c3ccc(-c4nc[nH]n4)cc23)c1,5.00 to 6.30
2,Cc1ccc(-c2n[nH]c3ccc(-c4nnc[nH]4)cc23)cc1,5.00 to 6.00
3,CN(C)CC(=O)Nc1cccc(-c2n[nH]c3ccc(-c4nc[nH]n4)cc23)c1,5.00 to 6.30
4,NC(=O)c1ccc2[nH]nc(-c3cccc(NC(=O)c4cccnc4)c3)c2c1,5.00 to 6.00
5,O=C(CCN1CCCCC1)Nc1cccc(-c2n[nH]c3ccc(-c4nn[nH]n4)cc23)c1,5.00 to 6.30
6,Clc1ccc(-c2n[nH]c3ccc(-c4nc[nH]n4)cc23)cc1Cl,5.00 to 6.00
7,CS(=O)(=O)Nc1cccc(-c2n[nH]c3ccc(-c4nnc[nH]4)cc23)c1,5.00 to 6.00
8,COCCNc1cccc(-c2n[nH]c3ccc(C(N)=O)cc23)c1,5.00 to 6.00
9,Fc1ccc(-c2n[nH]c3ccc(-c4nnc(-c5cccnc5)[nH]4)cc23)cc1,5.00 to 6.00
10,CNC(=O)c1ccc2[nH]nc(-c3cc4ccccc4o3)c2c1,5.00 to 6.00
11,Cc1ccc2[nH]nc(-c3ccc(F)cc3)c2c1,≥ 5.00
12,COCCNC(=O)c1ccc2[nH]nc(-c3cc4ccccc4o3)c2c1,5.00 to 6.00
13,CC(=O)O[C@@H](C)C(=O)Nc1cccc(-c2n[nH]c3ccc(C(N)=O)cc23)c1,5.00 to 6.30
14,CC(C)NC(=O)c1ccc2[nH]nc(-c3cc4ccccc4o3)c2c1,5.00 to 6.00
15,c1cc(-c2n[nH]c3ccc(-c4nnn[nH]4)cc23)ccc1OCCN1CCOCC1,5.00 to 6.30
16,CN(C)Cc1nnc(-c2ccc3[nH]nc(-c4ccc(F)cc4)c3c2)[nH]1,5.00 to 6.30
17,OC1CCN(Cc2nnc(-c3ccc4[nH]nc(-c5ccc(F)cc5)c4c3)[nH]2)CC1,5.00 to 6.00
18,COc1ccc(/C=C/c2n[nH]c3ccc(-c4nc[nH]n4)cc23)cc1,5.00 to 6.00
19,Cc1ccc(/C=C/c2n[nH]c3ccc(-c4nnc[nH]4)cc23)cc1,5.00 to 6.00

# Further lines, results first:
row,pIC50,Structure (SMILES)
1,5.00 to 6.30,O=C(Nc1cccc(-c2n[nH]c3ccc(-c4nc[nH]n4)cc23)c1)c1ccco1
2,5.00 to 6.00,CS(=O)(=O)c1ccc(-c2n[nH]c3ccc(-c4ncn[nH]4)cc23)cc1
3,5.00 to 6.30,O=C(Cc1ccccc1)Nc1cccc(-c2n[nH]c3ccc(-c4nnc[nH]4)cc23)c1
4,5.00 to 6.00,c1cc(OCCN2CCNCC2)cc(-c2n[nH]c3ccc(-c4ncn[nH]4)cc23)c1
5,5.00 to 6.00,O=C1CCCN1CCOc1cccc(-c2n[nH]c3ccc(-c4ncn[nH]4)cc23)c1
6,5.00 to 6.30,CN(C)CCNC(=O)c1cccc(-c2n[nH]c3ccc(-c4ncn[nH]4)cc23)c1
7,5.00 to 6.00,FC(F)(F)c1ccc(-c2n[nH]c3ccc(-c4ncn[nH]4)cc23)cc1
8,5.00 to 6.30,O=C(N[C@H]1CCc2ccccc21)c1cccc(-c2n[nH]c3ccc(-c4ncn[nH]4)cc23)c1
9,5.00 to 6.00,Nc1cccc(-c2n[nH]c3ccc(-c4nnc[nH]4)cc23)c1
10,5.00 to 6.00,c1cc(OCCN2CCOCC2)cc(-c2n[nH]c3ccc(-c4ncn[nH]4)cc23)c1
11,≥ 5.00,CN1CCN(C(=O)c2cccc(-c3n[nH]c4ccc(-c5ncn[nH]5)cc34)c2)CC1
12,5.00 to 6.00,O=C(Nc1ccc(-c2n[nH]c3ccc(-c4ncn[nH]4)cc23)cc1)c1ccco1
13,5.00 to 6.30,O=C(NCc1ccccc1)c1cccc(-c2n[nH]c3ccc(-c4ncn[nH]4)cc23)c1
14,5.00 to 6.30,O=C(N[C@@H]1CCc2ccccc21)c1cccc(-c2n[nH]c3ccc(-c4ncn[nH]4)cc23)c1
15,5.00 to 6.00,C[S+]([O-])c1ccc(-c2n[nH]c3ccc(-c4ncn[nH]4)cc23)cc1 (stereo unspecified)
16,5.00 to 6.00,O=C(NCCOc1cccc(-c2n[nH]c3ccc(-c4ncn[nH]4)cc23)c1)OCc1ccccc1
17,5.00 to 6.00,O=C(N[C@@H]1c2ccccc2C[C@@H]1O)c1cccc(-c2n[nH]c3ccc(-c4ncn[nH]4)cc23)c1
18,5.00 to 6.00,O=C(N[C@H]1c2ccccc2C[C@H]1O)c1cccc(-c2n[nH]c3ccc(-c4ncn[nH]4)cc23)c1
19,5.00 to 6.30,O=C(NC1Cc2ccccc2C1)c1cccc(-c2n[nH]c3ccc(-c4ncn[nH]4)cc23)c1
20,5.00 to 6.00,CC(=O)N1CCN(CCOc2cccc(-c3n[nH]c4ccc(-c5ncn[nH]5)cc34)c2)CC1
21,5.00 to 6.00,CC(C)(C)CNC(=O)c1cccc(-c2n[nH]c3ccc(-c4ncn[nH]4)cc23)c1
22,5.00 to 6.30,O=C(Nc1cccc(-c2n[nH]c3ccc(-c4nc[nH]n4)cc23)c1)c1cccnc1

row,pIC50,Structure (SMILES)
1,≥ 5.00,NCCOc1cccc(-c2n[nH]c3ccc(-c4ncn[nH]4)cc23)c1
2,5.00 to 6.00,O=C(/C=C/c1ccccc1)Nc1cccc(-c2n[nH]c3ccc(-c4nc[nH]n4)cc23)c1
3,5.00 to 6.30,O=C(NCc1ccc(F)cc1)c1cccc(-c2n[nH]c3ccc(-c4ncn[nH]4)cc23)c1
4,5.00 to 6.00,C[C@H](NC(=O)c1cccc(-c2n[nH]c3ccc(-c4ncn[nH]4)cc23)c1)c1ccccc1
5,5.00 to 6.30,O=C(NCC1CC1)c1cccc(-c2n[nH]c3ccc(-c4ncn[nH]4)cc23)c1
6,5.00 to 6.30,C[C@@H](NC(=O)c1cccc(-c2n[nH]c3ccc(-c4ncn[nH]4)cc23)c1)c1ccccc1
7,5.00 to 6.00,CC(=O)Nc1cccc(-c2n[nH]c3ccc(-c4ncn[nH]4)cc23)c1
8,5.00 to 6.00,c1cc(OCCN2CCCC2)cc(-c2n[nH]c3ccc(-c4ncn[nH]4)cc23)c1
9,5.00 to 6.30,c1cc(OCCCN2CCCCC2)cc(-c2n[nH]c3ccc(-c4ncn[nH]4)cc23)c1
10,5.00 to 6.30,O=C(Nc1cccc(-c2n[nH]c3ccc(-c4nn[nH]n4)cc23)c1)c1cccnc1
11,5.00 to 6.30,CC(Oc1ccccc1)C(=O)Nc1cccc(-c2n[nH]c3ccc(-c4nn[nH]n4)cc23)c1 (stereo unspecified)
12,5.00 to 6.30,O=C(Nc1cccc(-c2n[nH]c3ccc(-c4nn[nH]n4)cc23)c1)c1ccco1
13,5.00 to 6.00,CN(C)CCOc1cccc(-c2n[nH]c3ccc(-c4ncn[nH]4)cc23)c1
14,5.00 to 6.00,CN(C)CCCOc1cccc(-c2n[nH]c3ccc(-c4ncn[nH]4)cc23)c1
15,5.00 to 6.00,c1cc(OCCN2CCCCCC2)cc(-c2n[nH]c3ccc(-c4ncn[nH]4)cc23)c1
16,5.00 to 6.30,O=C(NCc1cccnc1)c1cccc(-c2n[nH]c3ccc(-c4ncn[nH]4)cc23)c1
17,5.00 to 6.00,Clc1cccc(-c2n[nH]c3ccc(-c4ncn[nH]4)cc23)c1
18,5.00 to 6.30,CC(Oc1ccccc1)C(=O)Nc1cccc(-c2n[nH]c3ccc(-c4nc[nH]n4)cc23)c1 (stereo unspecified)
19,5.00 to 6.00,CC(=O)NCCOc1cccc(-c2n[nH]c3ccc(-c4ncn[nH]4)cc23)c1
20,5.00 to 6.30,CC(C)(C)NC(=O)c1cccc(-c2n[nH]c3ccc(-c4ncn[nH]4)cc23)c1
21,5.00 to 6.00,Clc1ccccc1-c1n[nH]c2ccc(-c3ncn[nH]3)cc12
22,5.00 to 6.30,CC(C)(NC(=O)c1cccc(-c2n[nH]c3ccc(-c4ncn[nH]4)cc23)c1)c1ccccc1
